Data reported in US7649017B2, “Compositions intended for the treatment of peripheral neuropathies, preparation thereof and uses of same” (Universite de la Mediterranee, priority 2002, dated 2010).

Assays:
[1] = test system: C22 males (murine CMT model); test: Rotor-Rod test, double-blind study vitamin C versus placebo in C22 males; assay type: in vivo, mice; settings: 1.12 mg once a week by gavage
Protocol: Rotor-Rod test performance was evaluated every month (at 3 months, 4 months and 5 months). The standard deviation is indicated by the darkened section at the top of each column. […] Only males (from two litters) were used, since the degree of severity is sex-specific. […] The fact that only males were included is very important, because it is known that severity varies widely in human patients according to sex, a variability also seen in the animal models used, in which there appears to be a major modifier gene having an impact on myelination. “Genetic background” thus seems to play a significant role in the severity of the phenotype. It was therefore justified to work with individuals from a same litter. […] The animals were then evaluated in the Rotor-Rod test. The study lasted for three months (age of animals: two to five months). The results are illustrated in FIG. 1.

[2] = test system: C22 mice; test: Histologic analysis of sciatic nerve, percentage of myelinated fibers; assay type: in vivo; settings: C22 mice treated for three months
Protocol: The sciatic nerve was harvested and the percentage of myelinated fibers was determined by histologic analysis and is given in the figure on the ordinate, together with the results of a non-transgenic control (more than 95% of peripheral nerve fibers are myelinated in adults).
To obtain data on the mechanism of this phenotypic correction, the histologic features of the nerves of treated animals were studied. For this, some of the treated animals were sacrificed and a histologic analysis was performed. The percentage of myelinated nerve fibers increased with treatment (FIG. 3). This percentage was 95% for non-transgenic animals, 20-30% for untreated C22 mice and 70% for treated animals. The treatment therefore reactivated myelination, which was inhibited by overexpression of PMP22.

[3] = test system: transgenic C22 animals (murine CMT model, human YAC containing the PMP22 gene); test: Rotor-Rod test, first open trial in transgenic C22 animals; assay type: in vivo, mice; settings: treated with vitamin C
Protocol: To better understand the pathophysiology of this disease and to propose therapeutic solutions, a murine disease model was constructed in 1996 by transgenesis of a human YAC containing the PMP22 gene (Huxley et al., Human Molecular Genetics, 1996, Vol. 5, No. 5, 563-569). […] The action of vitamin C was tested in this model. A first “open” trial was carried out, without inclusion criteria, by simply separating males and females so as to rapidly determine whether a phenotypic correction effect could be seen. The Rotor-Rod test, classically used in pharmacology, was chosen as the criterion of muscle strength. […] The results, expressed in seconds, confirm that males were more severely affected (males in this line even have early mortality, since all males die before 10 months of age).

[4] = test system: C22 males (murine CMT model); test: Survival of treated C22 males under continued treatment; assay type: in vivo, mice; settings: continued vitamin C treatment; untreated males die before 10 months of age
Description: The results, expressed in seconds, confirm that males were more severely affected (males in this line even have early mortality, since all males die before 10 months of age).
Performance continued to improve, even after taking into account that the animals had aged.

[5] = test system: C22 animals (murine CMT model); test: Bar crossing (posture) test and grip test, third study; assay type: in vivo, mice
Protocol: FIG. 2: A second series of preclinical tests with the same design as the first series (described in FIG. 1) was carried out. Animals were tested after one month and two months of treatment using the bar crossing test (the longer the animal takes to cross the bar or the more it slips off, the worse the locomotor performance). Animals were also tested in the grip test which measures the traction strength that must be applied for the animal to release the bar (the higher this value the better the performance). To confirm these findings and further investigate the mechanism of phenotypic correction, a third study was carried out. Two tests were used: a posture test (crossing a bar that gets progressively narrower) and a test of muscle strength, the “grip test”. FIG. 2 illustrates the results after two months of treatment. […] This test is a good indicator of muscle strength.

O=C1O[C@H]([C@@H](O)CO)C(O)=C1O [vitamin C, ascorbic acid]
Rotor-Rod test performance, first month of treatment ([1]; first month): not very effective
Time on the bar (Rotor-Rod test), second month of treatment ([1]; from the second month): ~50 s
Rotor-Rod test performance, third month of treatment ([1]; third month): further improved
Percentage of myelinated nerve fibers [2]: 70%
Seconds on the bar (Rotor-Rod test), treated animals ([3]; C22 females): 45.7 ± 10 s
Seconds on the bar (Rotor-Rod test), treated animals ([3]; C22 males): 46 ± 14 s
Age at which treated males were still alive [4]: still alive at age 24 months
Bar crossing performance ([5]; after one and two months of treatment): deteriorated at the first month, then improved during the second
Grip test (muscle strength) ([5]; after two months of treatment): improvement was also seen starting from two months of treatment
